# “Also recorded” adds a separate entry of the source.
# Key:
# Format in all cases: in vivo
# [1] = test system: rats pretreated with MK-801; assay: Morris Water Maze in rats pretreated with MK-801; conditions: rats, MK-801 alone 0.15 mg/kg i.p. on day 1
# Method: The Morris Water Maze is a well known test aimed to assess spatial cognitive tasks (Anger, et al., Animal test systems to study behavioral dysfunctions of neurodegenerative disorders, Neurotoxicology, 12, 403-13 (1991)). The maze consists of a circular pool measuring 1.80 m in diameter 60 cm in height. The pool was filled with water (21±1° C.) to a depth of 30 cm. A circular hidden escape platform (10 cm in diameter) was placed just below the water surface. The test room contained several permanent extra maze cues such as the rat housing rack, laboratory table, posters on the walls, etc.
# The Morris Water Maze is a well known test aimed to assess spatial cognitive tasks. The maze consists of a circular pool measuring 1.80 m in diameter 60 cm in height. The pool was filled with water (21±1° C.) to a depth of 30 cm. A circular hidden escape platform (10 cm in diameter) was placed just below the water surface. The test room contained several permanent extra maze cues such as the rat housing rack, laboratory table, posters on the walls, etc.
# In the experiment rats were given Compound 1 orally on day 1 and the first test begun 90 minute later, six trials per day, for 3 consecutive days, to find the hidden platform (acquisition phase). The escape latency, i.e., the time required by the rat to find and climb onto the platform, was recorded for up to 120 sec. Each rat was allowed to remain on the platform for 30 sec, after which it was removed to its home cage.
# A video camera was placed above the center of the pool for tracking the rat, and a video tracking system (Noldus) with online digital output directly fed data into a computer. Data were analyzed using EthoVision automated tracking system software (Noldus).
# Compound 1 at both doses decreased the latency to the platform on day 3 of the experiment but not on days 1 and 2.
# The relief of cognitive impairments was also shown in the use of Compound 6. […] Compound 6 at 10 mg/kg decreased the latency to the platform on days 2 and 3 of the experimentation.
# [2] = test system: amphetamine-induced hyperactivity in mice; assay: Amphetamine-induced hyperactivity and stereotypic behavior
# Description: The amphetamine-induced hyperactivity and motility is one of the most popular animal models for schizophrenia (Pouzet B, et al., Effects of the 5-HT(7) receptor antagonist SB-258741 in animal models for schizophrenia. Pharmacol Biochem Behav April; 71(4):655-665, 2002 and Geyer, et al., Animal behavior models of the mechanisms underlying antipsychotic atypicalicity, Progress in Neuro-Psychopharmacol & Biological Psychiatry, 27, 1071-79, 2003). Amphetamines are known to augment dopaminergic and noradrenergic neurotransmission by inducing catecholamine release and preventing catecholamine reuptake
# The experiment was conducted with ICR male mice placed in individual barrels. […] The locomotor activity, number of rearings and head movements was recorded every 15 minutes for 2 h.
# As stated above, the amphetamine-induced hyperactivity and motility is one of the most popular animal models for schizophrenia. The experiment was conducted with ICR male mice placed in individual barrels. Compound 1 (20 mg/kg) was administered p.o to the mice 1 hr prior to i.p. administration of amphetamine (2. mg/kg). The hyper-active behavior expressed by the number of climbings and rearings and the stereotypic behavior expressed by the number of head movements was recorded every 15 minutes over a period of 1 h.
# The effect of Compound 3 (12.5, 25 and 50 mg/kg, i.p.) on amphetamine-induced hyperactivity in Balb/c mice was also examined. Animals (6 per group) were injected with Compound 3 (12.5, 25 and 50 mg/kg) and 30 minutes later received amphetamine (2 mg/kg ip). After 30 minutes, animals were exposed to an open field test for a period of 20 minutes.
# [3] = test system: MK-801-induced hyperactivity in mice; assay: MK-801-induced hyperactivity in open field
# Method: MK-801-Induced Stereotype Behavior in Rats (in Open Field)—
# MK-801 is an analogue of PCP which inhibits NMDA receptors and elicits hyperlocomotion and stereotypic behavior in rodents and is used as an animal model of schizophrenia (Stephen, et al., Topiramate antagonizes MK-801 in an animal model of schizophrenia, Eur. J. Pharmacol. 449, 2002, 121-5). For experimentation, naïve Balb/c mice were used. MK-801 (0.15 mg/kg i.p) was administered 40 minutes after Compound 1 (or any one of the other compounds of the invention) or a vehicle, and 20 minutes prior to placing the mouse in an open field.
# Animals placed in the open field were followed for 60 minutes and their distance moved, velocity, duration of immobility, and number of rearing events were registered using the Noldus system.
# As stated above, MK-801 inhibits NMDA receptors and elicits hyperlocomotion. Therefore, where an antagonism of the hyperactivity-induced by the MK-801 is observed upon administration of a compound of the invention, it is an indication as to the positive modulation of the NMDA activity. In other words, such a compound may be considered as useful in the treatment of schizophrenia.
# The effect of Compound 6 on the distance moved in Balb/c mice exposed to MK-801 ([…]) i.p. and to Compound 6 (up to 12.5 mg/kg, i.p.) administered 1 hr prior to MK-801 was also tested.
# As stated above, MK-801 (an NMDA receptor antagonist) is a widely accepted animal model for schizophrenia. The experiment was conducted with Balb/c male mice (Harlan Il), 6 per group. Compound 1 (50 mg/kg) was administered i.p. (1 hr before experimentation), to mice alone or combined with MK-801 (0.15 mg/kg, i.p.) administered 20 minutes prior to placing the mice individually in an open field for 60 minutes. The hyper-active behavior expressed by hyperlocomotion, velocity, strong mobility, number of rearing was evaluated using the Noldus system, each point represents the mean+/−6 determinations.
# mice = assay: Open field exploratory locomotor activity
# Description: Open Field Exploratory Locomotor Activity
# The procedure consists of subjecting an animal, usually a rodent, to an unknown large environment from which escape is prevented by surrounding walls. The open field test is now one of the most popular procedures in animal psychology (Crawley, et al., Exploratory behavior models of anxiety in mice, Neurosci Biobehav Rev 9 (1985), pp. 37-44). The procedure involves forced confrontation of a rodent with the situation. The animal is placed in the center or close to the walls of the apparatus and the following behavioral items are recorded for a period ranging from 5 to 20 minutes: horizontal locomotion, and frequency of rearing or leaning. In such a situation, rodents spontaneously prefer the periphery of the apparatus to activity in the central parts of the open field. Increase in time spent in the central part as well as of the ratio central/total locomotion or decrease of the latency to enter the central part are indications of anxiolysis.
# In a typical test, an individual mouse was placed in a novel environment of a square open field (50×50 cm), the floor of which had been divided into 3 areas, as shown below. The area within 10 cm of the chamber walls was termed the periphery. […] One hour after drug administration, the animal was placed in the same corner of the field. The animal behavior in the open field was recorded by videotaping for 20-60 minutes and analyzed subsequently digitally using the Noldus software for animal behavior. The measurements included velocity, distance moved, frequency of visits to the central area, number of rearing events.
# The effect of Compound 1 on the behavior of mice in the open field and the dose-dependent effect following i.p administration were evaluated. Naïve male Mice (Balb/c, Harlan Israel) were used. The animals, divided 3 to 5 animals per group, were administered with Compound 1 (12.5, 25, 50, 75 and 100 mg/kg) 1 hr prior to placing each in an open field. Mice were monitored for 1 hr (every 5 minutes) using the Noldus system, and their distance moved, velocity, time of immobility and number of rearings was recorded.
# The effect of Compound 6 on the behavior of mice in the open field was also examined. Naïve male mice (Balb/c, Harlan Israel) were used. Animals (6 per group) were administered with Compound 6 (12.5, 25 and 50 mg/kg, i.p.) 1 hr prior to placing each in the open field. Mice were followed for 1 hr (every 5 minutes) using the Noldus system, and their distance moved, velocity, time of immobility and number of rearings was recorded.
# The effect of oral administration of Compound 1 in the open field was tested by orally administering to male ICR mice varying amounts of Compound 1 (5, 10 and 20 mg/kg) or vehicle. Animals were placed in the open field 1 hr after drug administration and horizontal and vertical behavior was recorded for 20 minutes.
# The dose-dependent effect of Compound 3 administered i.p. in the open field was also tested. Naïve male mice (Balb/c, Harlan Israel) were used. Animals were administered with Compound 3 (12.5, 25 and 50 mg/kg, i.p., 6 per group) 1 hr prior to placing each in the open field. Mice were followed for 1 hr (every 5 minutes) using the Noldus system, and their distance moved, velocity, time of immobility and number of rearings was recorded.
# Animals were administered orally with Compound 1 (5, 10 and 20 mg/kg) or with a vehicle. Animals were placed in the open field 1 hr after drug administration and animal track was registered for 20 minutes. The time spent in the center (zone 3) and the frequency to the center were indicators of anxiety.
# [4] = Balb/c mice, 12.5, 25 and 50 mg/kg i.p.
Compound,memory tasks (latency to the platform) compared to normal controls [1],"distance moved, combined with amphetamine ([2]; Balb/c mice, 12.5 mg/kg i.p.)","distance moved, combined with amphetamine ([2]; Balb/c mice, 12.5, 25 and 50 mg/kg i.p. at -60 minutes)","immobility, combined with amphetamine ([2]; Balb/c mice, 12.5, 25 and 50 mg/kg i.p., amphetamine 2 mg/kg ip)","effect of amphetamine (hypermotility) ([2]; Balb/c mice, 12.5, 25 and 50 mg/kg i.p., amphetamine 2 mg/kg ip 30 minutes later, open field 20 minutes)","hyperactivity ensued by amphetamine ([2]; Balb/c mice, already at 12.5 mg/kg i.p., 12.5 mg/kg)","distance moved, combined with amphetamine ([2]; Balb/c mice, doses higher than 12.5 mg/kg i.p.)","MK-801-induced hyperactivity ([3]; Balb/c mice, 7.5 mg/kg)","MK-801-induced hyperactivity ([3]; Balb/c mice, 25 mg/kg)","MK-801-induced hyperactivity ([3]; Balb/c mice, 50 mg/kg)","MK-801-induced hyperactivity (distance moved) ([3]; Balb/c mice, 12.5, 25 and 50 mg/kg i.p., MK-801 0.15 mg/kg i.p.)","immobility (“not moving” total duration), MK-801 treated ([3]; Balb/c mice, high dose)","frequency to the center of the field, MK-801 treated ([3]; Balb/c mice, low dose)","time spent in the center, MK-801 treated ([3]; Balb/c mice, low dose)","immobility (“not moving” total duration), MK-801 treated ([3]; Balb/c mice, small and intermediate doses (25 mg/kg))","motility parameters (mice; Balb/c mice, 50 mg/kg i.p.)",duration of “not moving” periods (mice; [4]),number of rearings vs. controls (mice; [4]),"motility (distance moved and velocity) (mice; Balb/c mice, up to 25 mg/kg i.p.)"
"C[C@]12N[C@H](Cc3ccccc31)c1ccccc12 [MK-801, reference compound]",significant impairment,,,,,,,,,,,,,,,,,,
COC(=O)C(N)COCN1CCN(C2=Nc3ccccc3Nc3sc(C)cc32)CC1 (stereo not shown) [Compound 3],,normalization,dose-dependent decrease,dose-dependently increased,dose-dependently antagonized,effective; also recorded: antagonized,marked decrease,slight effect,normalization of activity,sedation,dose dependent decrease,appeared,tended to increase,tended to increase,not found,marked decrease,dose dependently increased,decreased,mild decrease

# — patent US8828993B2, “Psychotropic agents having glutamate NMDA activity” (Ramot At Tel-Aviv University Ltd., priority 2006, dated 2014)
